Assay results reported in patent US10414779B2, “Fused [1,2]imidazo[4,5-C] ring compounds substituted with guanidino groups” (3M INNOVATIVE PROPERTIES COMPANY, priority 2016, dated 2019).
Structures can show the parent of a compound that is named as a salt.

How the values were obtained:
[1] = system: Human peripheral blood mononuclear cells (PBMC); experiment: Cytokine induction in human cells (PBMC), IFN-gamma by multiplex bead assay; type: cell-based; settings: 21-24 hrs, lowest concentration inducing cytokine at least 2× negative control, tested at 10, 1, 0.1, 0.01, 0.001, 0.0001 micromolar
Procedure: (§1) Cytokine Induction in Human Cells
(§2) Whole blood was obtained from healthy human donors and collected by venipuncture into vacutainer tubes or syringes containing EDTA. Human peripheral blood mononuclear cells (PBMC) were purified from the whole blood by density gradient centrifugation. Histopaque 1077 (15 mL, Sigma, St. Louis, Mo.) was transferred to 6×50 mL sterile polypropylene conical tubes. The Histopaque was overlayed with 15-25 mL of blood diluted 1:2 in Hank's Balanced Salts Solution (HBSS) (Gibco, Life Technology, Grand Island N.Y.). The tubes were then centrifuged at 1370 rpm for 30 minutes at 20° C., with no brake (400×g, GH 3.8A Rotor).
(§3) The interface (buffy coat) containing the PBMC was collected and placed in a new sterile 50 mL conical polypropylene centrifuge tube. […]
(§4) The number of viable cells were determined by counting with a Miltenyi FACS instrument (Miltenyi Biotec Inc., San Diego, Calif.) or by using a hemacytometer. […] Ten microliters of the diluted cells were then applied to the hemacytometer, and the number of viable PBMC were determined by microscopy. […]
(§5) IFN-alpha cytokine levels (pg/mL) were measured by ELISA (human IFN-α, pan specific, Mabtech, Cinncinnati, Ohio), IFN-gamma, TNF-alpha, and IP-10 cytokine levels (pg/mL) were measured by multiplex bead assay (magnetic beads, R & D Systems Minneapolis, Minn.) according to the manufacturer's instructions. […]

[2] = system: Human peripheral blood mononuclear cells (PBMC); experiment: Cytokine induction in human cells (PBMC), IFN-alpha by ELISA; type: cell-based; settings: 21-24 hrs, lowest concentration inducing cytokine at least 2× negative control, tested at 10, 1, 0.1, 0.01, 0.001, 0.0001 micromolar
Procedure: as §1, §2, §3, §4, §5

N=C(N)NCCC[C@H]1COCc2nc3c(N)nc4ccccc4c3n21 [Example 1, (11S)-1-{3-[6-amino-10,11-dihydro-8H-[1,4]oxazino[4′,3′:1,2]imidazo[4,5-c]quinolin-11-yl]propyl}guanidine dihydrochloride]
MEC to Induce Cytokine IFN-gamma [1]: 1.0 µM
MEC to Induce Cytokine IFN-alpha [2]: 1.0 µM
